Assay results: patent publication US8501936B2 (priority 2009, dated 2013)

Key:
[1] = target: human JAK2 (Homo sapiens (Human), UniProt O60674); details: read-out: JAK2 IC50
[2] = target: human FAK (Homo sapiens (Human), UniProt Q05397); details: read-out: FAK IC50
Chain of human FAK (Q05397 whole entry): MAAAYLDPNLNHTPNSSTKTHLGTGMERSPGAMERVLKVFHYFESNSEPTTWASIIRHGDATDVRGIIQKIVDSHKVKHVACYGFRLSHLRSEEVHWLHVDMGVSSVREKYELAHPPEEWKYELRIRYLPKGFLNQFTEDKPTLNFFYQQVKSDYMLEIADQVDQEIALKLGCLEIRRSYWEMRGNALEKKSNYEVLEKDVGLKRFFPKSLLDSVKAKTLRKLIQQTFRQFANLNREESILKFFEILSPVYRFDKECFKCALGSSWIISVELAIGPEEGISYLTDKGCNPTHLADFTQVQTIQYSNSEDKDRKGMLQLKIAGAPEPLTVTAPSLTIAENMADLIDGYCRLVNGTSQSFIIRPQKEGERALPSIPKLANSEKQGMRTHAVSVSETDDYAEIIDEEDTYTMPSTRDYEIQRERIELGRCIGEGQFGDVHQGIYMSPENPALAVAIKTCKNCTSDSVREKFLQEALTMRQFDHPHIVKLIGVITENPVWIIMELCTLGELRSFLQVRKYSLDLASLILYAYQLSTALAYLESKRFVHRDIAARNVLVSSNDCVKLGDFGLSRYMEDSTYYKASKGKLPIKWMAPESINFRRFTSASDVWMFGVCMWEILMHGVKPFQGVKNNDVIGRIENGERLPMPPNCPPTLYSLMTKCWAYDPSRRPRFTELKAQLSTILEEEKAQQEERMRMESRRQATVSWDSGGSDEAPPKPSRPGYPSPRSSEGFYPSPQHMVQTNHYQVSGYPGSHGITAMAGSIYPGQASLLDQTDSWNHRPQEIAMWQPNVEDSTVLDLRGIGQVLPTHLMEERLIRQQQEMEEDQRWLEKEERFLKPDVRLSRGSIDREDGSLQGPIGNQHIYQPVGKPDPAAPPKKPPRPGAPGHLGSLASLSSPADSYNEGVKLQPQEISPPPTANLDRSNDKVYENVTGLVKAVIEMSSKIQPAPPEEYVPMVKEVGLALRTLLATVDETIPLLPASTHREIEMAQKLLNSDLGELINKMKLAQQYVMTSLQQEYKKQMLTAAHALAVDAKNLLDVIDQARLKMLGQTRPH
Method: The ability of compounds to inhibit the kinase activity of baculovirus-expressed human FAK and PYK2 was measured using the 96-well plate TRF assay system described above for JAK2. […] For the FAK kinase assay, the reaction mixture (total volume=100 μL/well) contained 20 mM HEPES (pH 7.2), 10 μM ATP, 5 mM MgCl2, 0.5 mM DTT, 0.1% BSA, and test compound (diluted in DMSO; 2.5% DMSO final in assay). For PYK2, the 100 μL assay solution consisted of 20 mM HEPES (pH 7.2), 3 μM ATP, 5 mM MnCl2, 0.1% BSA, and test compound (diluted in DMSO; 2.5% DMSO final in assay). Enzyme (10 ng/mL FAK or 25 ng/mL PYK2) was added and the reaction was allowed to proceed at room temperature for 30 min. Detection of the phosphorylated product was performed by adding 100 μL/well of Eu—N1 labeled PY100 antibody diluted 1:75000 in 0.25% BSA in TBS-T (PerkinElmer #AD0041). […] Inhibition data were analyzed using ActivityBase and IC50 curves generated using XLFit.

Chain of human JAK2 (O60674 815-1132): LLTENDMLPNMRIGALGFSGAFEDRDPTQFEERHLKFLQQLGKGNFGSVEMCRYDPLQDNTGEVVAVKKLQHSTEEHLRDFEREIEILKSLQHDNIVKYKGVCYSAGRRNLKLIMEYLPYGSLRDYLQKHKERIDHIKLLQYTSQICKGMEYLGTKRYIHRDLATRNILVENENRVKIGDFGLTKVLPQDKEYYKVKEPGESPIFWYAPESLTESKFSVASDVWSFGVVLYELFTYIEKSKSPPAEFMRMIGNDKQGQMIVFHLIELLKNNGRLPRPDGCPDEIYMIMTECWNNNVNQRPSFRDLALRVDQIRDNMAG

| Compound | IC50 [1] | IC50 [2] |
| --- | --- | --- |
| CC(Nc1cccn2nc(Nc3ccc(N4CCN(C)CC4)cc3)nc12)c1ccccc1N(C)S(C)(=O)=O (stereo not drawn) [Example 197, N-Methyl-N-[2-(1-{2-[4-(4-methyl-piperazin-1-yl)-phenylamino]-[1,2,4]triazolo[1,5-a]pyridin-8-ylamino}-ethyl)-phenyl]-methanesulfonamide] | 418 nM | 0.999 µM |
| CN1CCN(c2cccc(Nc3nc4c(-c5ccc(P(C)(C)=O)cc5)cccn4n3)c2)CC1 [Example 198, {8-[4-(Dimethyl-phosphinoyl)-phenyl]-[1,2,4]triazolo[1,5-a]pyridin-2-yl}-[3-(4-methyl-piperazin-1-yl)-phenyl]-amine] | 1.73 nM | 10 µM |
| CP(C)(=O)c1ccc(-c2cccn3nc(N(CCS(C)(=O)=O)c4cccc(C5CCN(CCS(C)(=O)=O)CC5)c4)nc23)cc1 [Example 199, {8-[4-(Dimethyl-phosphinoyl)-phenyl]-[1,2,4]triazolo[1,5-a]pyridin-2-yl}-(2-methanesulfonyl-ethyl)-{3-[1-(2-methanesulfonyl-ethyl)-piperidin-4-yl]-phenyl}-amine] | 95.8 nM | 10 µM |
| CN(c1ccccc1CNc1cccn2nc(Nc3ccc4c(c3)CCC(N3CCOCC3)CC4)nc12)S(C)(=O)=O (stereo not drawn) [Example 200, N-Methyl-N-(2-{[2-(7-morpholin-4-yl-6,7,8,9-tetrahydro-5H-benzocyclohepten-2-ylamino)-[1,2,4]triazolo[1,5-a]pyridin-8-ylamino]-methyl}-phenyl)-methanesulfonamide] | 134 nM | 0.0182 µM |
| CN(c1ccccc1CNc1cccn2nc(Nc3ccc4cnccc4c3)nc12)S(C)(=O)=O [Example 201, N-(2-{[2-(Isoquinolin-6-ylamino)-[1,2,4]triazolo[1,5-a]pyridin-8-ylamino]-methyl}-phenyl)-N-methyl-methanesulfonamide] | 116 nM | 0.167 µM |
| CN(c1ccccc1CNc1cccn2nc(Nc3ccccc3)nc12)S(C)(=O)=O [Example 202, N-Methyl-N-{2-[(2-phenylamino-[1,2,4]triazolo[1,5-a]pyridin-8-ylamino)-methyl]-phenyl}-methanesulfonamide] | 571 nM | 0.189 µM |
| CP(C)(=O)c1ccc(-c2cccn3nc(Nc4cccc(C5CCN(CCS(C)(=O)=O)CC5)c4)nc23)cc1 [Example 203, {8-[4-(Dimethyl-phosphinoyl)-phenyl]-[1,2,4]triazolo[1,5-a]pyridin-2-yl}-{3-[1-(2-methanesulfonyl-ethyl)-piperidin-4-yl]-phenyl}-amine] | 166 nM | 10 µM |
| CN1CCN(c2cccc(Nc3nc4c(-c5ccc(S(C)(=O)=O)cc5)cccn4n3)c2)C(=O)C1 [Example 204, 1-{3-[8-(4-Methanesulfonyl-phenyl)-[1,2,4]triazolo[1,5-a]pyridin-2-ylamino]-phenyl}-4-methyl-piperazin-2-one] | 1.63 nM | 10 µM |
| CN1CCN(c2cccc(Nc3nc4c(-c5ccc(N6CCC(N7CCN(C)CC7)CC6)cc5)cccn4n3)c2)CC1 [Example 206, [3-(4-Methyl-piperazin-1-yl)-phenyl]-(8-{4-[4-(4-methyl-piperazin-1-yl)-piperidin-1-yl]-phenyl}-[1,2,4]triazolo[1,5-a]pyridin-2-yl)-amine] | 45 nM | 3 µM |
| CN1CCN(c2cccc(Nc3nc4c(-c5ccc(P(C)(C)=O)cc5)cccn4n3)c2)C(=O)C1 [Example 207, 1-(3-{8-[4-(Dimethyl-phosphinoyl)-phenyl]-[1,2,4]triazolo[1,5-a]pyridin-2-ylamino}-phenyl)-4-methyl-piperazin-2-one] | 10.5 nM | 10 µM |
| CCN1CCN(c2cccc(Nc3nc4c(-c5ccc(P(C)(C)=O)cc5)cccn4n3)c2)C(=O)C1 [Example 208, 1-(3-{8-[4-(Dimethyl-phosphinoyl)-phenyl]-[1,2,4]triazolo[1,5-a]pyridin-2-ylamino}-phenyl)-4-ethyl-piperazin-2-one] | 13.2 nM | 10 µM |
| CCn1cc(Nc2nc3c(-c4ccc(S(C)(=O)=O)cc4)cccn3n2)cn1 [Example 209, (1-Ethyl-1H-pyrazol-4-yl)-[8-(4-methanesulfonyl-phenyl)-[1,2,4]triazolo[1,5-a]pyridin-2-yl]-amine] | 1.88 nM | 10 µM |
| CCn1cc(Nc2nc3c(Oc4ccc(S(C)(=O)=O)cc4)cccn3n2)cn1 [Example 211, (1-Ethyl-1H-pyrazol-4-yl)-[8-(4-methanesulfonyl-phenoxy)-[1,2,4]triazolo[1,5-a]pyridin-2-yl]-amine] | 1160 nM | 10 µM |
| CC(C)(C)OC(=O)N1CCC(n2cc(Nc3nc4c(-c5ccc(S(C)(=O)=O)cc5)cccn4n3)cn2)CC1 [Example 212, 4-{4-[8-(4-Methanesulfonyl-phenyl)-[1,2,4]triazolo[1,5-a]pyridin-2-ylamino]-pyrazol-1-yl}-piperidin-1-carboxylic acid tert-butyl ester] | 0.5 nM | 3 µM |
| CS(=O)(=O)c1ccc(-c2cccn3nc(Nc4cnn(C5CCNCC5)c4)nc23)cc1 [Example 213, [8-(4-Methanesulfonyl-phenyl)-[1,2,4]triazolo[1,5-a]pyridin-2-yl]-(1-piperidin-4-yl-1H-pyrazol-4-yl)-amine] | 0.71 nM | 3 µM |
| FC(F)(F)c1ccc(-c2cccn3nc(Nc4cnn(CCN5CCCC5)c4)nc23)cc1 [Example 216, [1-(2-Pyrrolidin-1-yl-ethyl)-1H-pyrazol-4-yl]-[8-(4-trifluoromethyl-phenyl)-[1,2,4]triazolo[1,5-a]pyridin-2-yl]-amine] | 9.1 nM | 10 µM |
| CS(=O)(=O)c1ccc(Oc2cccn3nc(Nc4cnn(CCN5CCCC5)c4)nc23)cc1 [Example 217, [8-(4-Methanesulfonyl-phenoxy)-[1,2,4]triazolo[1,5-a]pyridin-2-yl]-(1-(2-pyrrolidin-1-yl-ethyl)-1H-pyrazol-4-yl]-amine] | 3000 nM | 1.22 µM |
| CS(=O)(=O)c1ccc(-c2cccn3nc(Nc4cnn(CCN5CCCC5)c4)nc23)cc1 [Example 219, [8-(4-Methanesulfonyl-phenyl)-[1,2,4]triazolo[1,5-a]pyridin-2-yl]-(1-(2-pyrrolidin-1-yl-ethyl)-1H-pyrazol-4-yl]-amine] | 13.9 nM | 10 µM |
| COCc1ccccc1-c1cccc2nc(Nc3ccc4c(c3)CCN(C(=O)OC(C)(C)C)CC4)nn12 [Example 226, 7-[5-(2-Methoxymethyl-phenyl)-[1,2,4]triazolo[1,5-a]pyridin-2-ylamino]-1,2,4,5-tetrahydro-benzo[d]azepine-3-carboxylic acid tert-butyl ester] | 650 nM | 10 µM |
| COCc1ccccc1-c1cccc2nc(Nc3ccc4c(c3)CCN(CC(=O)N(C)C)CC4)nn12 [Example 229, 2-{7-[5-(2-Methoxymethyl-phenyl)-[1,2,4]triazolo[1,5-a]pyridin-2-ylamino]-1,2,4,5-tetrahydro-benzo[d]azepin-3-yl}-N,N-dimethyl-acetamide] | 47.4 nM | 3 µM |
| COCc1ccccc1-c1cccc2nc(Nc3ccc4c(c3)CCN(CCS(C)(=O)=O)CC4)nn12 [Example 230, [3-(2-Methanesulfonyl-ethyl)-2,3,4,5-tetrahydro-1H-benzo[d]azepin-7-yl]-[5-(2-methoxymethyl-phenyl)-[1,2,4]triazolo[1,5-a]pyridin-2-yl]-amine] | 27.6 nM | 2 µM |
